# Source: patent publication US20250120399A1, “METHODS AND COMPOSITIONS FOR ALTERING METABOLITES IN VITIS SPP. AND PREVENTING PESTS AND PATHOGENS” (Impello Biosciences, Inc., priority 2022, published 2025)
# What was measured:
# Aspergillus carbonarius = test: Sour rot incidence and severity on Kyoho grapes, 2022 field trial (Example 6); format: in vivo; settings: for sour rot Incidence per plot (PESINC, clusters) / sour rot severity High (PESSEV, clusters) / sour rot severity Low (PESSEV, clusters) / sour rot severity Medium (PESSEV, clusters): applications ABCD; for sour rot severity High (PESSEV, clusters): high (>51%); for sour rot severity Low (PESSEV, clusters): low (<40% of cluster area infected); for sour rot severity Medium (PESSEV, clusters): medium (41%-50%)
# Method: (§1) Field trials were conducted in California 2022 (a dry year) to investigate the efficacy of MDJ in preventing Sour Rot caused by Aspergillus carbonarius (also known as summer bunch rot, abbreviated ASPECA in Table 10). Kyoho grapes (Vitis vinifera×Vitis labrusca) were used in this trial. Three vines were used per plot. The plots were arranged in a randomized complete block design with six replicates (plots) per treatment (24 plots total). The plots were sprayed four times (ABCD) at a rate of 500 gal/AC.
# (§2) Treatments consisted of MDJ at 32 oz and 48 oz/A. A treatment of Regalia® at 1.5 qt/100 gal and Stargus® at 2 qt/100 gal was included for comparative purposes.
# Botrytis and powdery mildew were absent for the trial. An evaluation of sour rot was completed before the harvest. The area of an infected cluster was estimated into a percentage and categorized into three levels of severity: low (<40%), medium (41%-50%), and high (>51%). The majority of individual infected clusters had low severity.
# Malbec wine grape juice = test: Key metabolites in wine grape juice by HPLC with UV detection (Example 2); format: in vivo, Vitis vinifera
# Method: 200 grapes were randomly selected from the MDJ treated group and control group of the study described above in Example 1. Samples were pooled from each group and juice was prepared for winemaking used standard practices. The juice was analyzed for several key metabolites important for wine making (Table 6). All samples were run on Agilent HPLC with UV detection for the compounds listed below. Between 50 μL-100 μL was injected into the machine per sample.
# [1] = tested on: Black seedless grapes (Vitis labrusca); test: Red grape panel analysis (ETS Laboratories), black seedless grapes (Example 5); format: in vivo; settings: for Fruit catechin: ABCDE, Aug. 18, 2022
# Method: as §1, with “7). Black seedless” for “10). Kyoho”, “(Vitis” for “(Vitis vinifera×Vitis”, “Four” for “Three”, “treatment.” for “treatment (24 plots total).”, “five” for “four”, “(ABCDE)” for “(ABCD)”
# (§3) Treatments consisted of MDJ at 32 oz and 48 oz/A. A treatment of Regalia® at 1.5 qt/100 gal and Stargus® at 2 qt/100 gal was included for comparative purposes. Application D occurred at 5-10% veraison. Application E occurred at 40% veraison.
# (§4) A randomly selected sample of approximately twenty wine grapes was used to evaluate the Brix and titratable acid. Another randomly selected sample (>500 g) was shipped to ETS Laboratories (Paso Robles, CA) for a red grape panel analysis (catechin, quercetin glycosides, tannin, polymeric anthocyanins, total anthocyanins, catechin/tannin index, and polymeric anthocyanins/tannin index). […] Total anthocyanins increased over 17% (449.1 in untreated controls compared to 529.3 in the group treated with 48 oz/A MDJ). An increase in quercetin glycosides, tannin, and polymeric anthocyanins, was also observed in MDJ treated plants (Table 8), as well as titratable acid (Table 9).
# [2] = tested on: powdery mildew (Erysiphe necator); test: Powdery mildew on leaf and fruit under the microscope, 2021 field trial (Example 3); format: in vivo; settings: cabernet sauvignon; approx. 5 mM MDJ at 50 gal/acre, four applications
# Method: MDJ was applied to fields of grape to investigate the efficacy of MDJ in preventing bunch rot on (Botrytis cinerea) and powdery mildew (Erysiphe necator) on grapes. […] (1 liter) per 50 gallons of water (approximately a 5 mM solution of MDJ). The composition was then applied (at a rate of 50 gallons per acre) to three acres (1245 vines/acre) of a cabernet sauvignon variety grown in Napa Valley, CA. There was a total of four applications between June and September using a ground spray rig. Several leaf and fruit samples were collected to access the presence of powdery mildew under the microscope and compared to leaf and fruit of plants treated with the grower standard.
# [3] = tested on: Black seedless grapes (Vitis labrusca); test: Fruit Brix and titratable acid, black seedless grapes (Example 5); format: in vivo; settings: for Fruit BRIX / Titratable Acid, fruit: ABCDE; for Fruit BRIX: Aug. 11, 2022; for Titratable Acid, fruit: Sep. 8, 2022
# Method: as §1, with “7). Black seedless” for “10). Kyoho”, “(Vitis” for “(Vitis vinifera×Vitis”, “Four” for “Three”, “treatment.” for “treatment (24 plots total).”, “five” for “four”, “(ABCDE)” for “(ABCD)”
# as §3, §4
# [4] = tested on: Kyoho grapes (Vitis vinifera×Vitis labrusca); test: Cluster weight, grape weight, diameter, grapes per cluster, pH and Brix in Kyoho grapes (Example 6); format: in vivo; settings: for Average Brix (FRUIT, BRIX) / Average diameter (FRUIT, DIAMET) / Average fruit per cluster (CLUSTR, COUNT) / Individual grape weight (FRUIT, WEIGHT) / pH (FRUIT, PH) / Average Weight of cluster: applications ABCD; for Average Brix (FRUIT, BRIX) / Average diameter (FRUIT, DIAMET) / Average fruit per cluster (CLUSTR, COUNT) / Individual grape weight (FRUIT, WEIGHT): rated Aug. 17, 2022; for pH (FRUIT, PH): rated Aug. 17, 2022, scale 0-14
# Method: as §1, §2
# [5] = Malbec MDJ treated (2.5 mM, Example 1 trial), pooled 200 grapes
# [6] = fruit, Aug. 18, 2022, 32 oz/a, applications ABCDE
# [7] = fruit, Aug. 18, 2022, 48 oz/a, applications ABCDE
compound,measurement,setting,value
"CCCCCC1C(=O)CCC1CC(=O)OC (stereo not drawn) [MDJ, methyl dihydrojasmonate]","sour rot Incidence per plot (PESINC, clusters)","Aspergillus carbonarius; Aug. 17, 2022, 32 oz/a",0.8— number
same,"sour rot Incidence per plot (PESINC, clusters)","Aspergillus carbonarius; Aug. 17, 2022, 48 oz/a",1.2— number
same,"sour rot severity High (PESSEV, clusters)","Aspergillus carbonarius; Aug. 17, 2022, 32 oz/a",0.0— number
same,"sour rot severity High (PESSEV, clusters)","Aspergillus carbonarius; Aug. 17, 2022, 48 oz/a",0.0— number
same,"sour rot severity Low (PESSEV, clusters)","Aspergillus carbonarius; Aug. 17, 2022, 32 oz/a",0.8— number
same,"sour rot severity Low (PESSEV, clusters)","Aspergillus carbonarius; Aug. 17, 2022, 48 oz/a",0.8— number
same,Control of sour rot compared to the rest of the treatments,Aspergillus carbonarius; lower rate of MDJ Elicitor (32 oz/A),highest efficacy in controlling sour rot
same,"sour rot severity Medium (PESSEV, clusters)","Aspergillus carbonarius; Aug. 17, 2022, 32 oz/a",0.0— number
same,"sour rot severity Medium (PESSEV, clusters)","Aspergillus carbonarius; Aug. 17, 2022, 48 oz/a",0.3— number
same,Catechin in wine grape juice,Malbec wine grape juice; [5],28 mg/L
same,Polymeric anthocyanins in wine grape juice,Malbec wine grape juice; [5],24 mg/L
same,Quercetin glycosides in wine grape juice,Malbec wine grape juice; [5],23 mg/L
same,Tannin in wine grape juice,Malbec wine grape juice; [5],393 mg/L
same,Total anthocyanins in wine grape juice,Malbec wine grape juice; [5],1697 mg/L
same,Increase of total anthocyanins vs control,"Malbec wine grape juice; Malbec wine grape juice, MDJ treatment group",approximately 8%
same,Color of grape wine juice vs control group,"Malbec wine grape juice; Malbec, MDJ treatment group, FIG. 2","richer, darker red color"
same,Fruit catechin,[1]; 32 oz/a,0.8b mg/L
same,Increase of total anthocyanins vs untreated controls,[1]; 48 oz/A MDJ,over 17%
same,total anthocyanins,[1]; 48 oz/A MDJ,529.3
same,Fruit catechin,[1]; 48 oz/a,2.6a mg/L
same,Catechin vs untreated,[1]; MDJ treated plants,increase
same,Polymeric anthocyanins vs untreated,[1]; MDJ treated plants,increase
same,Quercetin glycosides vs untreated,[1]; MDJ treated plants,increase
same,Tannin vs untreated,[1]; MDJ treated plants,increase
same,catechin/tannin index,[1]; [6],0.0—
same,polymeric anthocyanins,[1]; [6],13.5— mg/L
same,polymeric anthocyanins/tannin index,[1]; [6],0.0312—
same,quercetin glycosides,[1]; [6],89.8— mg/L
same,tannin,[1]; [6],432.0— mg/L
same,total anthocyanins,[1]; [6],388.3— mg/L
same,catechin/tannin index,[1]; [7],0.0—
same,polymeric anthocyanins,[1]; [7],14.7— mg/L
same,polymeric anthocyanins/tannin index,[1]; [7],0.0304—
same,quercetin glycosides,[1]; [7],113.2— mg/L
same,tannin,[1]; [7],483.2— mg/L
same,total anthocyanins,[1]; [7],529.3— mg/L
same,Control of powdery mildew vs grower standard,[2],"the same, or better, control of powdery mildew as the grower standard"
same,Fruit BRIX,[3]; 32 oz/a,19.080— %
same,"Titratable Acid, fruit",[3]; 32 oz/a,5.83— g/L
same,Fruit BRIX,[3]; 48 oz/a,19.560— %
same,"Titratable Acid, fruit",[3]; 48 oz/a,6.67— g/L
same,Fruit Brix vs untreated,[3]; MDJ treated plants,increase
same,Titratable acid vs untreated,[3]; MDJ treated plants,increase
same,"Average Brix (FRUIT, BRIX)",[4]; 32 oz/a,20.73%
same,"Average diameter (FRUIT, DIAMET)",[4]; 32 oz/a,23.778 mm
same,"Average fruit per cluster (CLUSTR, COUNT)",[4]; 32 oz/a,32.5 number
same,"Individual grape weight (FRUIT, WEIGHT)",[4]; 32 oz/a,7.277 g
same,"pH (FRUIT, PH)",[4]; 32 oz/a,4.0
same,"Average Brix (FRUIT, BRIX)",[4]; 48 oz/a,20.17%
same,"Average diameter (FRUIT, DIAMET)",[4]; 48 oz/a,23.917 mm
same,"Average fruit per cluster (CLUSTR, COUNT)",[4]; 48 oz/a,34.3 number
same,"Individual grape weight (FRUIT, WEIGHT)",[4]; 48 oz/a,7.232 g
same,"pH (FRUIT, PH)",[4]; 48 oz/a,4.0
same,Average Weight of cluster,"[4]; Aug. 17, 2022, 32 oz/a",234.287a g
same,Average Weight of cluster,"[4]; Aug. 17, 2022, 48 oz/a",246.350a g
same,Diameter of individual grapes,[4]; MDJ treatment,did not significantly affect
same,Weight of individual grapes,[4]; MDJ treatment,did not significantly affect
same,pH of individual grapes,[4]; MDJ treatment,did not significantly affect
same,Grapes per cluster vs standard control (Regalia and Stargus),[4]; both rates of MDJ (32 and 48 oz/A),significantly more grapes per cluster
same,Brix level compared to other treatments,[4]; higher rate of MDJ (48 oz/A),statistically reduced the Brix level
